Data reported in patent publication US10987349B2, “Antitumor agent and bromodomain inhibitor” (FUJIFILM Corporation, priority 2016, dated 2021).

Legend:
BRD2 BD1 = target: T1, BRD2 BD1 (Homo sapiens, UniProt P25440); experiment: Binding assay, BRD2 BD1 to acetylated histone H4 Peptide-Biotin (EPIgeneous Binding Domain Kit A); conditions: for inhibition at 0.3 µM: test compound at 300 nmol/L, read-out: Binding inhibition percentage BRD2 BD1
T1 construct: BRD2 BD1, BRD3 BD1 and BRD4 BD1 (Cisbio); purchased Cisbio
Method: (§1) BRD2 BD1, BRD3 BD1 and BRD4 BD1 (Cisbio), [Lys(Ac)5/8/12/16]-Histone H4(1-25)-GSGSK (Biotin) (hereinafter referred to as “Peptide-Biotin,” AnaSpec), and EPIgeneous (registered trademark) Binding Domain Kit A (Cisbio) were used to carry out an assay. That is to say, per well, 4 μL of BRD2 BD1, BRD3 BD1 or BRD4 BD1, which was adjusted to 20 nmol/L with Diluent buffer; 4 μL of 25 nmol/L Peptide-Biotin; 2 μL of Dilution buffer (Cisbio) containing dimethyl sulfoxide (DMSO) or a test compound that was serially diluted with DMSO; 5 μL of 2.5 nmol/L Streptavidin-d2; and 5 μL of Anti-Gst-Eu+^3+ Cryptate Conjugate 50-fold diluted with Detection Buffer were added to a 384-well plate (Corning).
(§2) The obtained mixture was left at rest at room temperature for 20 hours, and thereafter, the fluoresence intensity at 665 nm and 620 nm was measured using Envision plate reader (Perkin Elmer), so that the inhibition percentage (%) of the test compound against the binding of a bromodomain in a bromodomain-containing protein to Peptide-Biotin was calculated. Binding inhibition percentage (%)=[1−{(fluorescence intensity at 665 nm of test compound−added well)/(fluorescence intensity at 620 nm of test compound−added well)}/{(fluorescence intensity at 665 nm of DMSO−added well)/(fluorescence intensity at 665 nm of DMSO−added well)}]×100
(§3) Moreover, using Graphpad prism 5 (GraphPad software), 50% inhibitory concentration [IC50 (nmol/L)] was calculated according to a non-linear regression analysis (log (inhibitor) vs. response—Variable slope (four parameters)).
(§4) Regarding other test compounds, each compound was diluted with DMSO to a final concentration of 300 nmol/L by the same method as that described above, and the binding inhibition percentage (%) of each test compound at 300 nmol/L against the binding of bromodomain in a bromodomain-containing protein to acetylated histone was calculated.

BRD3 BD1 = target: T2, BRD3 BD1 (Homo sapiens, UniProt Q15059); experiment: Binding assay, BRD3 BD1 to acetylated histone H4 Peptide-Biotin (EPIgeneous Binding Domain Kit A); conditions: for inhibition at 0.3 µM: test compound at 300 nmol/L, read-out: Binding inhibition percentage BRD3 BD1
T2 construct: BRD2 BD1, BRD3 BD1 and BRD4 BD1 (Cisbio); purchased Cisbio
Method: as §1, §2, §3, §4

BRD4 BD2 = target: T3, BRD4 BD2 (Homo sapiens, UniProt O60885); experiment: Binding assay, BRD4 BD2 to acetylated histone H4 Peptide-Biotin (EPIgeneous Binding Domain Kit B); conditions: for inhibition at 0.3 µM: test compound at 300 nmol/L, read-out: Binding inhibition percentage BRD4 BD2
T3 construct: BRD2 BD2, BRD3 BD2 and BRD4 BD2 (Cisbio); purchased Cisbio
Method: (§5) Moreover, BRD2 BD2, BRD3 BD2 and BRD4 BD2 (Cisbio), Peptide-Biotin (AnaSpec), and EPIgeneous (registered trademark) Binding Domain Kit B (Cisbio) were used to carry out an assay. That is, per well, 4 μL of BRD2 BD2, BRD3 BD2 or BRD4 BD2, which was adjusted to 20 nmol/L with Diluent buffer; 4 μL of 250 nmol/L Peptide-Biotin; 2 μL of Dilution buffer (Cisbio) containing DMSO or a test compound that was serially diluted with DMSO; 5 μL of 25 nmol/L Streptavidin-XL665; 5 μL of Anti-Gst-Eu+^3+ Cryptate Conjugate 50-fold diluted with Detection Buffer were added to a 384-well plate (Corning).
as §2, §3, §4

BRD2 BD2 = target: T4, BRD2 BD2 (Homo sapiens, UniProt P25440); experiment: Binding assay, BRD2 BD2 to acetylated histone H4 Peptide-Biotin (EPIgeneous Binding Domain Kit B); conditions: for inhibition at 0.3 µM: test compound at 300 nmol/L, read-out: Binding inhibition percentage BRD2 BD2
T4 construct: BRD2 BD2, BRD3 BD2 and BRD4 BD2 (Cisbio); purchased Cisbio
Method: as §5, §2, §3, §4

BRD4 BD1 = target: T5, BRD4 BD1 (Homo sapiens, UniProt O60885); experiment: Binding assay, BRD4 BD1 to acetylated histone H4 Peptide-Biotin (EPIgeneous Binding Domain Kit A); conditions: for inhibition at 0.3 µM: test compound at 300 nmol/L, read-out: Binding inhibition percentage BRD4 BD1
T5 construct: BRD2 BD1, BRD3 BD1 and BRD4 BD1 (Cisbio); purchased Cisbio
Method: as §1, §2, §3, §4

BRD3 BD2 = target: T6, BRD3 BD2 (Homo sapiens, UniProt Q15059); experiment: Binding assay, BRD3 BD2 to acetylated histone H4 Peptide-Biotin (EPIgeneous Binding Domain Kit B); conditions: for inhibition at 0.3 µM: test compound at 300 nmol/L, read-out: Binding inhibition percentage BRD3 BD2
T6 construct: BRD2 BD2, BRD3 BD2 and BRD4 BD2 (Cisbio); purchased Cisbio
Method: as §5, §2, §3, §4

T6 sequence (Q15059 306-415 limits assumed): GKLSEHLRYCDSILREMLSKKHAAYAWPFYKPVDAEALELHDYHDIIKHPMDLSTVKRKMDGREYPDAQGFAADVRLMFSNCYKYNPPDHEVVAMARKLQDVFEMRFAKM
T2 sequence (Q15059 34-140 limits assumed): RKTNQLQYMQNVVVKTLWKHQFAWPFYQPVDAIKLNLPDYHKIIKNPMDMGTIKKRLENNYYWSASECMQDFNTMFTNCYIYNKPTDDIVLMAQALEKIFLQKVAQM
T4 sequence (P25440 344-453 limits assumed): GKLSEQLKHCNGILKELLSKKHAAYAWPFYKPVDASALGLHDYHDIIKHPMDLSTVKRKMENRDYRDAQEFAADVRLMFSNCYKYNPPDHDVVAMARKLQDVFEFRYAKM
T1 sequence (P25440 74-180 limits assumed): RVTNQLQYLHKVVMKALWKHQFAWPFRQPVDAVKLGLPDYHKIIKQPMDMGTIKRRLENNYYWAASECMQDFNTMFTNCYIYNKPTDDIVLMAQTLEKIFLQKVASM

| Compound | inhibition at 0.3 µM (BRD2 BD1) [%] | inhibition at 0.3 µM (BRD3 BD1) [%] | inhibition at 0.3 µM (BRD4 BD2) [%] | inhibition at 0.3 µM (BRD2 BD2) [%] | inhibition at 0.3 µM (BRD4 BD1) [%] | inhibition at 0.3 µM (BRD3 BD2) [%] | IC50 (BRD2 BD1) [nM] | IC50 (BRD3 BD1) [nM] | IC50 (BRD4 BD2) [nM] | IC50 (BRD2 BD2) [nM] | IC50 (BRD4 BD1) [nM] | IC50 (BRD3 BD2) [nM] |
| --- | --- | --- | --- | --- | --- | --- | --- | --- | --- | --- | --- | --- |
| CCn1c(=O)cc(C2CCN(C)CC2)c2cc(C(=O)N(C)c3ccc(C)c(C)c3)ccc21 [Example 294, N-(3,4-dimethylphenyl)-1-ethyl-N-methyl-4-(1-methylpiperidin-4-yl)-2-oxo-1,2-dihydroquinoline-6-carboxamide] | 94 | 95 | 85 | 84 | 94 | 90 | – | – | – | – | – | – |
| CCn1c(=O)cc(N2CCOCC2)c2cc(-n3c(-c4ccc(C)cc4)cn(C)c3=O)ccc21 [Example 273, 1-ethyl-6-(3-methyl-5-(4-methylphenyl)-2-oxo-2,3-dihydro-1H-imidazol-1-yl)-4-(morpholin-4-yl)quinolin-2(1H)-one] | 93 | 94 | 89 | 90 | 94 | 93 | – | – | – | – | – | – |
| CCn1c(=O)cc(N2CCOCC2)c2cc(N(C)C(=O)c3ccc(Cl)cc3)ccc21 [Example 250, 4-chloro-N-(1-ethyl-4-(morpholin-4-yl)-2-oxo-1,2-dihydroquinolin-6-yl)-N-methylbenzamide] | 74 | 91 | 88 | 88 | 91 | 92 | – | – | – | – | – | – |
| CCn1c(=O)cc(C2CC2)c2cc(N3C(=O)C(C)C(=O)N3c3ccccc3)ccc21 (stereo not drawn) [Example 280, 1-(4-cyclopropyl-1-ethyl-2-oxo-1,2-dihydroquinolin-6-yl)-4-methyl-2-phenylpyrazolidine-3,5-dione] | 83 | 90 | 90 | 88 | 93 | 92 | – | – | – | – | – | – |
| CCn1c(=O)cc(N2CCOCC2)c2cc(-c3ccccc3-c3ccccc3)ccc21 [Example 258, 6-(biphenyl-2-yl)-1-ethyl-4-(morpholin-4-yl)quinolin-2(1H)-one] | 26 | 67 | 72 | 81 | 64 | 83 | – | – | – | – | – | – |
| CCn1cc(-c2ccccc2)n(-c2ccc3c(c2)c(N2CCOCC2)cc(=O)n3CC)c1=O [Example 266, 1-ethyl-6-(3-ethyl-2-oxo-5-phenyl-2,3-dihydro-1H-imidazol-1-yl)-4-(morpholin-4-yl)quinolin-2(1H)-one] | 91 | 94 | 88 | 90 | 93 | 91 | – | – | – | – | – | – |
| CCCCn1cc(-c2ccccc2)n(-c2ccc3c(c2)c(N2CCOCC2)cc(=O)n3CC)c1=O [Example 264, 6-(3-butyl-2-oxo-5-phenyl-2,3-dihydro-1H-imidazol-1-yl)-1-ethyl-4-(morpholin-4-yl)quinolin-2(1H)-one] | 92 | 94 | 88 | 88 | 95 | 91 | – | – | – | – | – | – |
| CCn1c(=O)cc(C2CCN(C(C)=O)CC2)c2cc(C(=O)N(C)c3ccc(C)cc3)ccc21 [Example 290, 4-(1-acetylpiperidin-4-yl)-1-ethyl-N-methyl-N-(4-methylphenyl)-2-oxo-1,2-dihydroquinoline-6-carboxamide] | – | – | – | – | – | – | 45 | 15 | 22 | 86 | 6 | 59 |
| CCn1c(=O)cc(C2CCN(C(=O)C(C)C)CC2)c2cc(C(=O)N(C)c3ccc(C)cc3)ccc21 [Example 183, 1-ethyl-N-methyl-N-(4-methylphenyl)-4-(1-(2-methylpropanoyl)piperidin-4-yl)-2-oxo-1,2-dihydroquinoline-6-carboxamide] | 81 | 92 | 83 | 71 | 94 | 80 | – | – | – | – | – | – |
| CCn1c(=O)cc(N2CCOCC2)c2cc(-n3cc(C)nc3-c3ccccc3)ccc21 [Example 256, 1-ethyl-6-(4-methyl-2-phenyl-1H-imidazol-1-yl)-4-(morpholin-4-yl)quinolin-2(1H)-one] | 84 | 93 | 88 | 86 | 94 | 92 | – | – | – | – | – | – |
| CCn1c(=O)cc(C)c2cc(-c3cccnc3-c3ccccc3)ccc21 [Example 291, 1-ethyl-4-methyl-6-(2-phenylpyridin-3-yl)quinolin-2(1H)-one] | 64 | 88 | 84 | 83 | 85 | 91 | – | – | – | – | – | – |
| CCn1c(=O)cc(N2CCOCC2)c2cc(-n3c(-c4ccccc4)cn(CCO)c3=O)ccc21 [Example 262, 1-ethyl-6-(3-(2-hydroxyethyl)-2-oxo-5-phenyl-2,3-dihydro-1H-imidazol-1-yl)-4-(morpholin-4-yl)quinolin-2(1H)-one] | 87 | 94 | 88 | 89 | 94 | 92 | – | – | – | – | – | – |
| CCn1c(=O)cc(N2CCOCC2)c2cc(-n3c(-c4ccc(C(F)(F)F)cc4)cn(C)c3=O)ccc21 [Example 270, 1-ethyl-6-(3-methyl-2-oxo-5-(4-(trifluoromethyl)phenyl)-2,3-dihydro-1H-imidazol-1-yl)-4-(morpholin-4-yl)quinolin-2(1H)-one] | 87 | 94 | 89 | 89 | 94 | 91 | – | – | – | – | – | – |
| Cc1ccc(N(C)C(=O)c2ccc3c(c2)c(C2CCN(C)CC2)cc(=O)n3C)cc1 [Example 235, N,1-dimethyl-N-(4-methylphenyl)-4-(1-methylpiperidin-4-yl)-2-oxo-1,2-dihydroquinoline-6-carboxamide] | 94 | 94 | 87 | 82 | 95 | 89 | – | – | – | – | – | – |
| CCn1c(=O)cc(N2CCOCC2)c2cc(-c3nccn3-c3ccccc3)ccc21 [Example 257, 1-ethyl-4-(morpholin-4-yl)-6-(1-phenyl-1H-imidazol-2-yl)quinolin-2(1H)-one] | 84 | 92 | 88 | 85 | 95 | 91 | – | – | – | – | – | – |
| CCn1c(=O)cc(C2CC2)c2cc(-c3nccnc3-c3ccccc3)ccc21 [Example 284, 4-cyclopropyl-1-ethyl-6-(3-phenylpyrazin-2-yl)quinolin-2(1H)-one] | 83 | 93 | 89 | 88 | 93 | 92 | – | – | – | – | – | – |
| CCn1c(=O)cc(C2CC2)c2cc(N(C)C(=O)c3ccccc3)ccc21 [Example 2, N-(4-cyclopropyl-1-ethyl-2-oxo-1,2-dihydroquinolin-6-yl)-N-methylbenzamide] | 52 | 85 | 86 | 89 | 85 | 91 | – | – | – | – | – | – |
